Test system: 521955-158-R2-J5-PDC complex spheroids, viability
Experiment: Anticancer human tumor 521955-158-R2-J5-PDC patient-derived pancreatic carcinoma cell line growth inhibition [RAS]
Settings: for IC50: curve of first compound; for viability, T/C: stronger effect = lower value
In short: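 Multi-cell-type spheroids: tumor cells plus HUVEC endothelial cells and mesenchymal stem cells. RAS-pathway inhibitors were combined with targeted agents, each dosed in half-log steps down from clinical Cmax, or from 10 microM when Cmax was unknown.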

[1] = second compound 0.0316 µM, first compound 0.0316 µM
[2] = second compound 0.0316 µM, first compound 0.1 µM
[3] = second compound 0.0316 µM, first compound 0.316 µM
[4] = second compound 0.0316 µM, first compound 1 µM
[5] = second compound 0.0316 µM, first compound 3.16 µM
[6] = second compound 0.0316 µM, first compound 10 µM
[7] = second compound 0.1 µM, first compound 0.0316 µM
[8] = second compound 0.1 µM, first compound 0.1 µM
[9] = second compound 0.1 µM, first compound 0.316 µM
[10] = second compound 0.1 µM, first compound 1 µM
[11] = second compound 0.1 µM, first compound 3.16 µM
[12] = second compound 0.1 µM, first compound 10 µM
[13] = second compound 0.316 µM, first compound 0.0316 µM
[14] = second compound 0.316 µM, first compound 0.1 µM
[15] = second compound 0.316 µM, first compound 0.316 µM
[16] = second compound 0.316 µM, first compound 1 µM
[17] = second compound 0.316 µM, first compound 3.16 µM
[18] = second compound 0.316 µM, first compound 10 µM
[19] = second compound 1 µM, first compound 0.0316 µM
[20] = second compound 1 µM, first compound 0.1 µM
[21] = second compound 1 µM, first compound 0.316 µM
[22] = second compound 1 µM, first compound 1 µM
[23] = second compound 1 µM, first compound 3.16 µM
[24] = second compound 1 µM, first compound 10 µM
[25] = second compound 3.16 µM, first compound 0.0316 µM
[26] = second compound 3.16 µM, first compound 0.1 µM
[27] = second compound 3.16 µM, first compound 0.316 µM
[28] = second compound 3.16 µM, first compound 1 µM
[29] = second compound 3.16 µM, first compound 3.16 µM
[30] = second compound 3.16 µM, first compound 10 µM
[31] = second compound 10 µM, first compound 0.0316 µM
[32] = second compound 10 µM, first compound 0.1 µM
[33] = second compound 10 µM, first compound 0.316 µM
[34] = second compound 10 µM, first compound 1 µM
[35] = second compound 10 µM, first compound 3.16 µM
[36] = second compound 10 µM, first compound 10 µM
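Further: compound exposure lasted seven days before the viability read.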
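Wherever viability, T/C is given: spheroids also contain HUVEC endothelial cells and mesenchymal stem cells as stroma.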

Molecule `CC(Nc1ccc2c(c1)OCCn1cc(N3C(=O)OCC3C(F)F)nc1-2)C(N)=O` (stereo unspecified) + C#Cc1c(F)ccc2cc(O)cc(-c3ncc4c(N5CC6CCC(C5)N6)nc(OCC56CCCN5CC(F)C6)nc4c3F)c12 has an IC50 (second compound 0.0316 µM) of 55.4 nM, an IC50 (second compound 0.1 µM) of under 31.6 nM and an IC50 (second compound 0.316 µM) of under 31.6 nM. It also gave an IC50 (second compound 1 µM) of under 31.6 nM, an IC50 (second compound 3.16 µM) of under 31.6 nM and an IC50 (second compound 10 µM) of under 31.6 nM. The viability, T/C [1] was 60.7%, the viability, T/C [2] was 37.6% and the viability, T/C [3] was 28.7%. The viability, T/C [4] was 17.1%, the viability, T/C [5] was 12.9% and the viability, T/C [6] was 11.9%. It also gave a viability, T/C [7] of 46.9%, a viability, T/C [8] of 31.9% and a viability, T/C [9] of 24.3%. It also gave a viability, T/C [10] of 16%, a viability, T/C [11] of 13.6% and a viability, T/C [12] of 11.3%. The viability, T/C [13] was 48.1%, the viability, T/C [14] was 35.1% and the viability, T/C [15] was 18.7%. It also gave a viability, T/C [16] of 16%, a viability, T/C [17] of 10.8% and a viability, T/C [18] of 10.2%. For the same molecule, the viability, T/C [19] was 36%, the viability, T/C [20] was 28.7% and the viability, T/C [21] was 18.2%. It also gave a viability, T/C [22] of 16.7%, a viability, T/C [23] of 11.7% and a viability, T/C [24] of 8.56%. The viability, T/C [25] was 32.7%, the viability, T/C [26] was 25.3% and the viability, T/C [27] was 16.3%. It also gave a viability, T/C [28] of 11%, a viability, T/C [29] of 8.73% and a viability, T/C [30] of 6.29%. It also gave a viability, T/C [31] of 26.5%, a viability, T/C [32] of 16.8% and a viability, T/C [33] of 8.86%. The viability, T/C [34] was 4.7%, the viability, T/C [35] was 2.91% and the viability, T/C [36] was 1.54%.

`CC(C)NCC(C(=O)N1CCN(c2ncnc3c2C(C)CC3O)CC1)c1ccc(Cl)cc1` (stereo unspecified) + C#Cc1c(F)ccc2cc(O)cc(-c3ncc4c(N5CC6CCC(C5)N6)nc(OCC56CCCN5CC(F)C6)nc4c3F)c12 showed an IC50 (second compound 0.0316 µM) of 49.1 nM, an IC50 (second compound 0.1 µM) of under 31.6 nM and an IC50 (second compound 0.316 µM) of under 31.6 nM. The IC50 (second compound 1 µM) was under 31.6 nM, the IC50 (second compound 3.16 µM) was under 31.6 nM and the IC50 (second compound 10 µM) was under 31.6 nM. It also gave a viability, T/C [1] of 55.1%, a viability, T/C [2] of 40% and a viability, T/C [3] of 36.9%. For the same molecule, the viability, T/C [4] was 15.6%, the viability, T/C [5] was 10.7% and the viability, T/C [6] was 10.4%. It also gave a viability, T/C [7] of 45.7%, a viability, T/C [8] of 54.2% and a viability, T/C [9] of 26.8%. The viability, T/C [10] was 13.4%, the viability, T/C [11] was 8.3% and the viability, T/C [12] was 8.31%. It also gave a viability, T/C [13] of 43.6%, a viability, T/C [14] of 43.2% and a viability, T/C [15] of 29.1%. It also gave a viability, T/C [16] of 11.7%, a viability, T/C [17] of 7.83% and a viability, T/C [18] of 6.31%. For the same molecule, the viability, T/C [19] was 43.8%, the viability, T/C [20] was 45.2% and the viability, T/C [21] was 26.9%. It also gave a viability, T/C [22] of 12.7%, a viability, T/C [23] of 6.2% and a viability, T/C [24] of 4.69%. It also gave a viability, T/C [25] of 43.4%, a viability, T/C [26] of 38.2% and a viability, T/C [27] of 22%. The viability, T/C [28] was 8.28%, the viability, T/C [29] was 5.14% and the viability, T/C [30] was 3.32%. The viability, T/C [31] was 32.3%, the viability, T/C [32] was 27% and the viability, T/C [33] was 15.1%. The viability, T/C [34] was 7.44%, the viability, T/C [35] was 3.67% and the viability, T/C [36] was 1.98%.

In the case of `CC(=O)OC12COC1CC(O)C1(C)C(=O)C(O)C3=C(C)C(OC(=O)C(O)C(NC(=O)OC(C)(C)C)c4ccccc4)CC(O)(C(OC(=O)c4ccccc4)C21)C3(C)C` (stereo unspecified) + CCn1c(-c2cccnc2C(C)OC)c2c3cc(ccc31)N1CCOC(CC(NC(=O)C(C(C)C)N(C)C(=O)C3(F)CCN(C(=O)C#CC(C)(C)N(C)C)CC3)C(=O)N3CCCC(N3)C(=O)OCC(C)(C)C2)C1, the IC50 (second compound 0.000949 µM) is reported as under 31.6 nM, the IC50 (second compound 0.003 µM) is reported as under 31.6 nM and the IC50 (second compound 0.00949 µM) is reported as under 31.6 nM. For the same molecule, the IC50 (second compound 0.03 µM) was under 31.6 nM, the IC50 (second compound 0.0949 µM) was under 31.6 nM and the IC50 (second compound 0.3 µM) was under 31.6 nM. It also gave a viability, T/C (second compound 0.000949 µM, first compound 0.0316 µM) of 47.5%, a viability, T/C (second compound 0.000949 µM, first compound 0.1 µM) of 23% and a viability, T/C (second compound 0.000949 µM, first compound 0.316 µM) of 24.6%. The viability, T/C (second compound 0.000949 µM, first compound 1 µM) was 22%, the viability, T/C (second compound 0.000949 µM, first compound 3.16 µM) was 28% and the viability, T/C (second compound 0.000949 µM, first compound 10 µM) was 40.4%. It also gave a viability, T/C (second compound 0.003 µM, first compound 0.0316 µM) of 31.7%, a viability, T/C (second compound 0.003 µM, first compound 0.1 µM) of 25.1% and a viability, T/C (second compound 0.003 µM, first compound 0.316 µM) of 27.6%. It also gave a viability, T/C (second compound 0.003 µM, first compound 1 µM) of 23.8%, a viability, T/C (second compound 0.003 µM, first compound 3.16 µM) of 28.9% and a viability, T/C (second compound 0.003 µM, first compound 10 µM) of 42.2%. The viability, T/C (second compound 0.00949 µM, first compound 0.0316 µM) was 33.5%, the viability, T/C (second compound 0.00949 µM, first compound 0.1 µM) was 24.6% and the viability, T/C (second compound 0.00949 µM, first compound 0.316 µM) was 23.6%. It also gave a viability, T/C (second compound 0.00949 µM, first compound 1 µM) of 25.8%, a viability, T/C (second compound 0.00949 µM, first compound 3.16 µM) of 40% and a viability, T/C (second compound 0.00949 µM, first compound 10 µM) of 38.1%. It also gave a viability, T/C (second compound 0.03 µM, first compound 0.0316 µM) of 35.7%, a viability, T/C (second compound 0.03 µM, first compound 0.1 µM) of 20.3% and a viability, T/C (second compound 0.03 µM, first compound 0.316 µM) of 22.8%. It also gave a viability, T/C (second compound 0.03 µM, first compound 1 µM) of 22.9%, a viability, T/C (second compound 0.03 µM, first compound 3.16 µM) of 32.3% and a viability, T/C (second compound 0.03 µM, first compound 10 µM) of 41.6%. It also gave a viability, T/C (second compound 0.0949 µM, first compound 0.0316 µM) of 39.1%, a viability, T/C (second compound 0.0949 µM, first compound 0.1 µM) of 26.8% and a viability, T/C (second compound 0.0949 µM, first compound 0.316 µM) of 19.3%. It also gave a viability, T/C (second compound 0.0949 µM, first compound 1 µM) of 25.5%, a viability, T/C (second compound 0.0949 µM, first compound 3.16 µM) of 38.2% and a viability, T/C (second compound 0.0949 µM, first compound 10 µM) of 41.1%. For the same molecule, the viability, T/C (second compound 0.3 µM, first compound 0.0316 µM) was 32.7%, the viability, T/C (second compound 0.3 µM, first compound 0.1 µM) was 22.7% and the viability, T/C (second compound 0.3 µM, first compound 0.316 µM) was 23.4%. It also gave a viability, T/C (second compound 0.3 µM, first compound 1 µM) of 32.3%, a viability, T/C (second compound 0.3 µM, first compound 3.16 µM) of 41.9% and a viability, T/C (second compound 0.3 µM, first compound 10 µM) of 39.9%.

— PubChem BioAssay AID2060900 (Molecular Pharmacology Branch, DTP, NCI, 2025)
